Assay results published in ChEMBL document CHEMBL1201862, “PubChem BioAssay data set” (2004).
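In this assay, cells in 96-well plates receive the compound at five concentrations for 48 hours. Endpoints are linearly interpolated between the surrounding concentrations. The concentration for 50% growth inhibition is given as GI50.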 Active and inactive are the calls of the source. Cut-off read from the data, not from the text of the source: active = GI50 up to about 1.1 µM and inactive = higher.

Legend:
Test in all cases: inhibition of tumour cell growth, NCI panel, 48 h
[1] = system: SK-MEL-28
[2] = system: NCI-H522
[3] = system: ACHN
[4] = system: BT-549
[5] = system: SW-620
[6] = system: KM12
[7] = system: OVCAR-8
[8] = system: U-251
[9] = system: MDA-N
[10] = system: OVCAR-4
[11] = system: SR
[12] = system: SK-MEL-2
[13] = system: LOX IMVI
[14] = system: NCI-H226
[15] = system: A549
[16] = system: NCI-H23
[17] = system: UO-31
[18] = system: OVCAR-3
[19] = system: CCRF-CEM
[20] = system: SK-MEL-5
[21] = system: M14
[22] = system: HOP-62
[23] = system: EKVX
[24] = system: NCI-H460
[25] = system: MOLT-4
[26] = system: UACC-62
[27] = system: SNB-75
[28] = system: SF-295
[29] = system: SN12C
[30] = system: Hs-578T
[31] = system: MDA-MB-231
[32] = system: K562
[33] = system: COLO 205
[34] = system: UACC-257
[35] = system: 786-0
[36] = system: A498
[37] = system: HOP-92
[38] = system: RPMI-8226
[39] = system: HT-29
[40] = system: CAKI-1
[41] = system: HCT-116
[42] = system: T47D
[43] = system: HCC 2998
[44] = system: HL-60
[45] = system: TK-10
[46] = system: SK-OV-3
[47] = system: SF-268
[48] = system: HCT-15
[49] = system: NCI/ADR-RES
[50] = system: IGROV-1
[51] = system: MDA-MB-435
[52] = system: OVCAR-5
[53] = system: DU-145

Compound: COC(=O)[C@@H]1CCc2nc3ccccc3c(=O)n21
- GI50 [1]: > 100 µM (inactive)
- GI50 [2]: > 100 µM (inactive)
- GI50 [3]: > 100 µM (inactive)
- GI50 [4]: > 100 µM (inactive)
- GI50 [5]: > 100 µM (inactive)
- GI50 [6]: > 100 µM (inactive)
- GI50 [7]: > 100 µM (inactive)
- GI50 [8]: > 100 µM (inactive)
- GI50 [9]: > 100 µM (inactive)
- GI50 [10]: > 100 µM (inactive)
- GI50 [11]: > 100 µM (inactive)
- GI50 [12]: > 100 µM (inactive)
- GI50 [13]: > 100 µM (inactive)
- GI50 [14]: 93.1 µM (inactive)
- GI50 [15]: > 100 µM (inactive)
- GI50 [16]: > 100 µM (inactive)
- GI50 [17]: > 100 µM (inactive)
- GI50 [18]: > 100 µM (inactive)
- GI50 [19]: > 100 µM (inactive)
- GI50 [20]: > 100 µM (inactive)
- GI50 [21]: > 100 µM (inactive)
- GI50 [22]: > 100 µM (inactive)
- GI50 [23]: > 100 µM (inactive)
- GI50 [24]: > 100 µM (inactive)
- GI50 [25]: > 100 µM (inactive)
- GI50 [26]: > 100 µM (inactive)
- GI50 [27]: > 100 µM (inactive)
- GI50 [28]: > 100 µM (inactive)
- GI50 [29]: > 100 µM (inactive)
- GI50 [30]: > 100 µM (inactive)
- GI50 [31]: > 100 µM (inactive)
- GI50 [32]: > 100 µM (inactive)
- GI50 [33]: > 100 µM (inactive)
- GI50 [34]: > 100 µM (inactive)
- GI50 [35]: > 100 µM (inactive)
- GI50 [36]: > 100 µM (inactive)
- GI50 [37]: > 100 µM (inactive)
- GI50 [38]: > 100 µM (inactive)
- GI50 [39]: > 100 µM (inactive)
- GI50 [40]: > 100 µM (inactive)
- GI50 [41]: > 100 µM (inactive)
- GI50 [42]: > 100 µM (inactive)
- GI50 [43]: > 100 µM (inactive)
- GI50 [44]: > 100 µM (inactive)
- GI50 [45]: > 100 µM (inactive)
- GI50 [46]: > 100 µM (inactive)
- GI50 [47]: > 100 µM (inactive)
- GI50 [48]: > 100 µM
- GI50 [49]: > 100 µM (inactive)
- GI50 [50]: > 100 µM (inactive)
- GI50 [51]: > 100 µM (inactive)
- GI50 [52]: > 100 µM (inactive)
- GI50 [53]: > 100 µM (inactive)
